From patent US8648047B2, “Methods and compositions for inhibition of multi-drug resistance by hyaluronan oligomers” (Tufts University, priority 2002, dated 2014)
Where two headings read alike, the source gives them in different places.

How the values were obtained:
[1] = system: MCF-7 human mammary carcinoma cells; experiment: Drug resistance, viable cell number (Coulter Counter); format: cell-based
Method: (§1) FIG. 15A is a line graph showing that MCF-7/Adr drug-resistant human mammary carcinoma cells grown in culture with hyaluronan oligomers are sensitized to doxorubicin. MCF-7/Adr cells were obtained from MCF-7 cells by being selected for drug resistance by exposure to doxorubicin. Cells were grown for 24 h in 24-well plates in RPMI 1640 medium containing Glutamex 1 plus 10% fetal bovine serum at 37° in 5% CO2. Various concentrations of doxorubicin (doxo) were then added and the cells incubated for another 72 h, followed by a further 24 h in the presence or absence of 100 μg/ml hyaluronan oligomers (o-HA). The oligomers were a mixed population of 3-8 repeating disaccharides in length. The cells were then harvested and the number of viable cells was determined in a Coulter Counter.

[2] = system: MCF-7/Adr drug-resistant human mammary carcinoma cells; experiment: as above; format: cell-based
Method: as §1
FIG. 18 is a set of line graphs showing a resulting cell number, on the ordinate, following drug treatment with doxorubicin, concentration (log) in nM on the abscissa, showing restoration of drug sensitivity (inhibition of drug resistance) by HA oligomers, soluble hyaluronan-binding decoys, and CD44 siRNA, using derivatives of MCF-7 cells as in FIG. 17 above.
Therefore, the effect of co-treatment with hyaluronan oligomers on drug resistance was examined in an established system, i.e. MCF-7/Adr human mammary carcinoma cells that have been selected for resistance to doxorubicin (Fairchild, C. R., et al., Cancer Res 47, 5141-8, 1987). First, the effect of hyaluronan oligomers on resistance to doxorubicin in the MCF-7/Adr cells versus the relatively drug-sensitive, parental MCF-7 cell line was compared.

[3] = system: MCF-7 cells infected with Has2, emmprin or β-galactosidase adenovirus; experiment: Doxorubicin resistance of recombinant adenovirus-infected MCF-7 cells; format: cell-based, human; settings: for IC50: Homo sapiens, MCF7, 48 h, 48 h
Method: Untreated MCF-7 cells or cells infected overnight with a recombinant Has2 adenovirus or a control β-galactosidase adenovirus (β-gal) were washed, then treated in culture for 48 h with 1-1000 nM doxorubicin, followed by analysis of cell number.
Cells were treated in culture for 48 h with 10-1000 nM doxorubicin in the presence or absence of 100 μg/ml o-HA and analyzed as in FIG. 16A.
FIG. 16C is a line graph showing doxorubicin response of untreated MCF-7 cells or cells infected overnight with a recombinant emmprin adenovirus or a control β-galactosidase adenovirus (β-gal) that were treated as described in FIG. 16B.
Emmprin adenovirus-infected MCF-7 cells or control β-galactosidase adenovirus (β-gal)-infected cells were treated in the presence or absence of 100 μg/ml hyaluronan oligomers (o-HA) as described in FIG. 16B. The results in FIGS. 16A-D are expressed as the means (±S.D) of three independent experiments performed in triplicate.

[4] = system: MDA-MB231 human mammary carcinoma cells; experiment: Methotrexate resistance, cell number in monolayer culture; format: cell-based
Method: MDA-MB231 human mammary carcinoma cells were treated with increasing concentrations of methotrexate (MTX) in the presence or absence of 100 μg/ml HA oligomers. Cells were grown in monolayer culture in 10% fetal bovine serum and cell number measured in a coulter counter. The MTT assay for viable cells (Denizot, F., et al. J Immunol Methods, 89: 271-277, 1986) gave similar results.
Effect of addition of hyaluronan oligomers on resistance of MDA-MB231 human breast cancer cells to treatment with methotrexate was assessed.

[5] = MCF-7 + o-HA (100 μg/ml hyaluronan oligomers)
[6] = MCF-7/Adr + o-HA (100 μg/ml hyaluronan oligomers)
[7] = Homo sapiens, MCF7, MCF-7 cells, drug alone
[8] = Homo sapiens, NCI/ADR-RES, MCF-7/Adr cells, drug alone

Compound	IC50 [1, 5] [nM]	IC50 [2, 6] [nM]	IC50 [1, 7] [nM]	IC50 [2, 8] [nM]	further results
O=NN(CCCl)C(=O)NCCCl [BCNU, 1,3 bis(2-chloroethyl)-1-nitrosurea]	1200	180	–	–	IC50 ([1]; MCF-7 cells, drug alone): 500 nM; IC50 ([2]; MCF-7/Adr cells, drug alone): 14000 nM
COc1cccc2c1C(=O)c1c(O)c3c(c(O)c1C2=O)C[C@@](O)(C(=O)CO)C[C@@H]3O[C@H]1C[C@H](N)[C@H](O)[C@H](C)O1 [Doxorubicin]	40	40	30	2200	increase in resistance to doxorubicin induced by increased hyaluronan production ([3]; HAS2 adenovirus-infected MCF-7 versus controls): 10-12 fold; IC50 ([3]; Has2 adenovirus-infected MCF-7 cells): 210 nM; IC50 ([3]; uninfected MCF-7 cells): 18 nM; IC50 ([3]; β-galactosidase adenovirus-infected MCF-7 cells): 20 nM
CN(Cc1cnc2nc(N)nc(N)c2n1)c1ccc(C(=O)N[C@@H](CCC(=O)O)C(=O)O)cc1 [Methotrexate]	–	–	20	–	IC50 ([4]; MDA-MB-231, MB231 cells, with 100 μg/ml hyaluronan oligomer (FIG. 12), read-out: IC50): ~10 nM; IC50 ([4]; MDA-MB-231, MB231 cells, without hyaluronan oligomer (FIG. 12), read-out: IC50): ~1000 nM; IC50 ([4]; MDA-MB-231, MDA-MB231 + o-HA (100 μg/ml hyaluronan oligomers), read-out: IC50 values): 6 nM; IC50 ([4]; MDA-MB-231, MDA-MB231 cells, drug alone, read-out: IC50 values): 800 nM
CC(=O)O[C@H]1C(=O)[C@@]2(C)[C@H]([C@H](OC(=O)c3ccccc3)[C@]3(O)C[C@H](OC(=O)[C@H](O)[C@@H](NC(=O)c4ccccc4)c4ccccc4)C(C)=C1C3(C)C)[C@]1(OC(C)=O)CO[C@@H]1C[C@@H]2O [Taxol]	–	60	350	700	–
CC[C@]1(O)C[C@H]2CN(CCc3c([nH]c4ccccc34)[C@@](C(=O)OC)(c3cc4c(cc3OC)N(C=O)[C@H]3[C@@](O)(C(=O)OC)[C@H](OC(C)=O)[C@]5(CC)C=CCN6CC[C@]43[C@@H]65)C2)C1 [Vincristine]	–	20	30	200	–
